Data published in US20250352555A1, “METHOD OF INCREASING IMMUNE CELL ACTIVATION AND/OR TREATING CANCER USING DIBENZOXAZEPINONES” (VASCULAR THERAPEUTICS PTY LTD, priority 2022, published 2025).

What was measured:
p-ERK (Thr^202/Tyr^204) = assay: Western blotting for p-ERK, A375 melanoma cells; format: cell-based, human; settings: 10 or 100 nM, 24 h
Experimental: Western blotting. Cells were treated with compounds and times indicated and total cell lysates were prepared in RIPA buffer. Lysates (10 μg) were resolved by SDS-PAGE and transferred to Immobilon-P polyvinylidene difluoride (PVDF) membranes (Millipore, USA).
Membranes were blocked with 5% skim milk and incubated with rabbit monoclonal anti-c-Jun (Abcam, cat. no. ab32137; mouse, rat and human reactive) antibody, rabbit monoclonal anti-PD-1 (Abcam, cat. no. ab214421) antibody, mouse monoclonal β-actin antibody (Sigma-Aldrich, cat. no. A5316), anti-phospho-SAPK/JNK (Thr^183/Tyr^185) (98F2) (CST, cat. no. 4671) antibody, anti-phospho-p44/42 MAPK (ERK1/2) (Thr^202/Tyr^204) (D13.14.4E) (CST, cat. no. 4370) antibody, anti-phospho-p38 MAPK (Thr^180/Tyr^182) (D3F9) (CST, cat. no. 4511) antibody, anti-SAPK/JNK antibody (CST, cat. no. 9252), anti-p44/42 MAPK (ERK1/2) (137F5) antibody (CST, cat. no. […] Chemiluminescence was detected using the Western Lightning Chemiluminescence system (Thermo Scientific, USA) and ImageQuant™ LAS 4000 biomolecular imager (GE Healthcare Life Sciences, USA). Band intensity in images generated with the LAS 4000 was quantified using NIH Image J.
The effect of BT2 on ERK phosphorylation (p-ERK) was evaluated in human melanoma cells given that MAP kinase activation is key to melanoma progression and the paucity of clinically approved ERK inhibitors. […]

MeWo cells = assay: Cell morphology study, MeWo; format: cell-based, human; settings: 1 μM, 24 h
Experimental: Cell morphology studies. Cells were grown in medium containing 10% FBS in 4-well chamber slides. The following day the cells were incubated in medium containing 10% FBS and vehicle, BT2 or SCH772984 at 1 μM for 24 h, then fixed with 4% paraformaldehyde solution for 15 min. After washing briefly in PBS the cells were stained with hemotoxylin and eosin. The slides were scanned using an Aperio ScanScope XT slide scanner (Leica Biosystems, Mt Waverley, Vic, Australia) and images were captured using ImageScope software (Leica Biosystems).
The morphology of A375 and MeWo cells exposed to 1 μM of BT2 or SCH772984 for 24 h was also assessed.

PD-L1 = assay: Immunohistochemistry of B16F10 tumors (Day 17), PD-L1; format: in vivo, mouse; settings: B16F10 tumors Day 17, 200 mg/kg i.p., vs vehicle
Source text: (§1) Immunohistochemical staining and analyses. Rabbit monoclonal anti-CD3 (cat. no. ab16669; mouse, rat and human reactive), rabbit monoclonal anti-PD-1 (cat. no. ab214421), rabbit monoclonal anti-CD68 (cat. no. ab125212) antibodies were obtained from Abcam, rabbit monoclonal anti-phospho-ERK (Thr^202/Tyr^204) (cat. no. CST4370), rabbit monoclonal total ERK (cat. no. CST4695), antibodies were obtained from Cell Signaling Technology. Rabbit polyclonal anti-PD-L1 (cat. no. PA5-20343) antibody was obtained from ThermoFisher.
Formalin fixed, paraffin embedded sections were prepared from tumors. Heat-induced epitope retrieval was applied to all deparaffinized sections (4 μm sections on Superfrost slides) with citrate buffer, pH 6.0 for 5 min at 110° C. Sections were blocked with Dual Endogenous Enzyme Block (DAKO, S2003) for 10 min and then with 2% skim milk for 20 min. Slides were incubated with primary antibody for 60 min at room temperature or overnight at 4° C. and then for 10 min with probe of MACH3 Rabbit AP-Polymer Detection solution (Biocare Medical, M3R533 G, H, L). […] Integrated optical density (IOD) or area of positive staining (red chromagen) was assessed using Image-Pro Plus software (Cybernetics, Bethesda, MD, USA). Positive staining was the average of quantitation in 4-8 fields of view under 20× or 40× objectives. […]

p-ERK = assay: Immunohistochemistry of B16F10 tumors (Day 17), p-ERK; format: in vivo, mouse; settings: B16F10 tumors Day 17, 200 mg/kg i.p.
Source text: as §1
Formalin fixed, paraffin embedded sections were prepared from tumors. Heat-induced epitope retrieval was applied to all deparaffinized sections (4 μm sections on Superfrost slides) with citrate buffer, pH 6.0 for 5 min at 110° C. […] Integrated optical density (IOD) or area of positive staining (red chromagen) was assessed using Image-Pro Plus software (Cybernetics, Bethesda, MD, USA). Positive staining was the average of quantitation in 4-8 fields of view under 20× or 40× objectives.
To assess the effect of BT2 in the same model, C57BL/6J mice bearing s.c. B16F10 tumors were administered with BT2 or vehicle (200 mg/kg or 20 ml/kg, respectively, i.p.) once a day on a 5 days-on/2 days-off schedule. […] Tumor size on Day 17 measured using callipers (FIG. 10A) correlated with isolated weighed tumors (FIG. 10B).

Q: Which results are given for `CCOC(=O)Nc1ccc2c(c1)C(=O)N(CC)c1ccccc1O2` [BT2, (10-ethyl-11-oxo-10,11-dihydro-dibenzo[b,f][1,4]oxazepin-2-yl)-carbamic acid ethyl ester]?
A: ERK phosphorylation (p-ERK, Western blot) (p-ERK (Thr^202/Tyr^204)): suppressed ERK phosphorylation; cell morphology (MeWo cells): loss of spindle morphology and cell rounding; PD-L1 levels in tumors (IHC) (PD-L1): increased; ERK phosphorylation in tumors (IHC) (p-ERK): suppression of ERK phosphorylation
